According to publication PMC5458078, “Global mapping of CARM1 substrates defines enzyme specificity and substrate recognition” (Nature Communications, 2017):

What was measured:
MCF7 CARM1 KO cells = assay: Quantitative MS of ADMA-containing peptides in MCF7 CARM1 KO cells expressing CARM1 28-608 or CARM1 140-608, and in CARM1 KO; assay type: cell-based, human
MCF7 cells = assay: Quantitative nanoLC-MS/MS (TMT) of ADMA-containing peptides, CARM1 KO vs parental; assay type: cell-based, human; set-up: Fold change KO/WT: scale not given here
[1] = log2 scale ratio, mean of n = 3
[2] = ADMA-containing peptide, MCF7, CARM1 knockout (KO1-3) vs wild type (WT1-3), TMT 6-plex experiment #1
[3] = CARM1 140-608 versus WT, mean of three replicates (log2)
[4] = KO versus WT, mean of three replicates (log2)
[5] = ADMA-containing peptide, CARM1 knockout (KO) vs wild type (WT) MCF7 cells, 6-plex TMT experiment #1, three biological replicates each, sheet "MCF7"
[6] = CARM1 140-608 vs WT, mean of 3 replicates (log2 scale)
[7] = KO vs WT, mean of 3 replicates (log2 scale)
[8] = MCF7, CARM1 KO (KO1-KO3) vs wild type (WT1-WT3)
[9] = mean, CARM1 140-608 versus WT (log2 scale)
[10] = mean, CARM1 KO versus WT (log2 scale)
[11] = MCF7 CARM1 knockout vs wild type, 3 biological replicates each, values are on log2 scale
[12] = ratio on log2 scale, mean of 3 replicates
[13] = MCF7, CARM1 knockout vs wild type, n = 3 each
[14] = CARM1 140-608 vs WT, mean of 3 replicates, log2
[15] = KO vs WT, mean of 3 replicates, log2
[16] = MCF7, CARM1 KO vs WT, three biological replicates each

Substance: NELIArYIK
- CARM1 140-608/WT (MCF7 CARM1 KO cells; [1]): -0.332
- KO/WT (MCF7 CARM1 KO cells; [1]): -0.02143
- Fold change KO/WT (MCF7 cells; [2]): 0.1085

Substance: FEGQHNQLGGNLrFEGPHGQPGVGIrFEGPLVQQGGGMrFEGPSVPGGGLR
- CARM1 140-608/WT (MCF7 CARM1 KO cells; [3]): 0.6048
- KO/WT (MCF7 CARM1 KO cells; [4]): -1.668
- Fold change KO/WT (MCF7 cells; [5]): -1.477

Substance: MPTMPMLDIrPGLIPQAPGPrFPLIQPGIPPQR
- CARM1 140-608/WT (MCF7 CARM1 KO cells; [6]): 0.8902
- KO/WT (MCF7 CARM1 KO cells; [7]): -2.649
- Fold change KO/WT (MCF7 cells; [8]): -2.649

Substance: IAQPVrSFLQPPKPLSSLSTLR
- CARM1 140-608/WT (MCF7 CARM1 KO cells; [6]): -1.679
- KO/WT (MCF7 CARM1 KO cells; [7]): -2.977
- Fold change KO/WT (MCF7 cells; [8]): -2.977

Substance: MGAGMGFGLErMAAPIDR
- CARM1 140-608/WT (MCF7 CARM1 KO cells; [9]): -2.085
- KO/WT (MCF7 CARM1 KO cells; [10]): -3.039
- Fold change KO/WT (MCF7 cells; [11]): -3.039

Substance: LLFQNLWKPrLNVP
- CARM1 140-608/WT (MCF7 CARM1 KO cells; [12]): -1.893
- KO/WT (MCF7 CARM1 KO cells; [12]): -4.858
- Fold change KO/WT (MCF7 cells; [13]): -4.157

Substance: SLIPPIPVSPPILAPrLSSGALK
- CARM1 140-608/WT (MCF7 CARM1 KO cells; [6]): -0.7213
- KO/WT (MCF7 CARM1 KO cells; [7]): -2.509
- Fold change KO/WT (MCF7 cells; [8]): -3.075

Substance: SSYLESPrGPrFDGPR
- CARM1 140-608/WT (MCF7 CARM1 KO cells; CARM1 140-608 versus WT, difference of mean log2 values): -2.628
- KO/WT (MCF7 CARM1 KO cells; CARM1 KO versus WT, difference of mean log2 values): -4.092
- Fold change KO/WT (MCF7 cells; CARM1 KO vs wild type MCF7 cells, 3 biological replicates each): -3.147

Substance: GASQAGMTGYGMPrQIL
- CARM1 140-608/WT (MCF7 CARM1 KO cells; [1]): -2.236
- KO/WT (MCF7 CARM1 KO cells; [1]): -2.889
- Fold change KO/WT (MCF7 cells; [2]): -2.889

Substance: LQNAFWEHGASrAMLPGSPLFTrAPPPK
- CARM1 140-608/WT (MCF7 CARM1 KO cells; [3]): -1.727
- KO/WT (MCF7 CARM1 KO cells; [4]): -2.217
- Fold change KO/WT (MCF7 cells; [8]): -2.217

Substance: MRPQPYGGTNPYSQQQGPPSGPQQGHGYPGQPYGSQTPQrYPMTMQGR
- CARM1 140-608/WT (MCF7 CARM1 KO cells; [14]): -0.1711
- KO/WT (MCF7 CARM1 KO cells; [15]): -1.781
- Fold change KO/WT (MCF7 cells; [16]): -2.959

Substance: GVVNTAVSAAVQAVrGrGrGTLTr
- CARM1 140-608/WT (MCF7 CARM1 KO cells; [1]): -0.4677
- KO/WT (MCF7 CARM1 KO cells; [1]): -0.6727
- Fold change KO/WT (MCF7 cells; [2]): -0.6248

Substance: AGGLLGTGSGLNLrMAGPQGLDLAPILR
- CARM1 140-608/WT (MCF7 CARM1 KO cells; [12]): -0.05646
- KO/WT (MCF7 CARM1 KO cells; [12]): -2.802
- Fold change KO/WT (MCF7 cells; [16]): -3.029

Substance: FFEAAAGSGSSAGAGDGAGPQrLPEPGGRPR
- CARM1 140-608/WT (MCF7 CARM1 KO cells; difference of log2 means, CARM1 140-608 vs WT): -1.027
- KO/WT (MCF7 CARM1 KO cells; difference of log2 means, KO vs WT): -1.059
- Fold change KO/WT (MCF7 cells; [5]): -1.059

Substance: SYGLGSEQrSQAPArYSLQSANASSLSSGQLK
- CARM1 140-608/WT (MCF7 CARM1 KO cells; [14]): -3.897
- KO/WT (MCF7 CARM1 KO cells; [15]): -5.372
- Fold change KO/WT (MCF7 cells; [16]): -5.372

Substance: FCAFGGNPPVTGPrSALAPNLLTSGK
- CARM1 140-608/WT (MCF7 CARM1 KO cells; [14]): -3.4143
- KO/WT (MCF7 CARM1 KO cells; [15]): -5.047
- Fold change KO/WT (MCF7 cells; [16]): -4.63

Substance: VrPVLNLPGPGPALPR
- CARM1 140-608/WT (MCF7 CARM1 KO cells; [3]): -1.7334
- KO/WT (MCF7 CARM1 KO cells; [4]): -4.296
- Fold change KO/WT (MCF7 cells; [5]): -2.268

Substance: SGSGNFGGGrGGGFGGNDNFGrGGNFSGrGGFGGSR
- CARM1 140-608/WT (MCF7 CARM1 KO cells; [9]): 0.1031
- KO/WT (MCF7 CARM1 KO cells; [10]): 0.7867
- Fold change KO/WT (MCF7 cells; [13]): 0.2137

Substance: LFHLPEYTWrLPCGGVR
- CARM1 140-608/WT (MCF7 CARM1 KO cells; [1]): 0.09104
- KO/WT (MCF7 CARM1 KO cells; [1]): -2.175
- Fold change KO/WT (MCF7 cells; [2]): -2.1298

Substance: QVHPFHVYPQPGMQrFR
- CARM1 140-608/WT (MCF7 CARM1 KO cells; [14]): -0.2745
- KO/WT (MCF7 CARM1 KO cells; [15]): -0.1867
- Fold change KO/WT (MCF7 cells; [16]): -0.1867

Substance: TPASTWASPrPLLNWSR
- CARM1 140-608/WT (MCF7 CARM1 KO cells; [6]): -2.026
- KO/WT (MCF7 CARM1 KO cells; [7]): -3.334
- Fold change KO/WT (MCF7 cells; [8]): -3.334

Substance: RGPPPPPPGrGGrGGSR
- CARM1 140-608/WT (MCF7 CARM1 KO cells; [9]): 0.09749
- KO/WT (MCF7 CARM1 KO cells; [10]): 0.3155
- Fold change KO/WT (MCF7 cells; [11]): 0.3155

Substance: STNPELPPrLGPVPSGLSQK
- CARM1 140-608/WT (MCF7 CARM1 KO cells; [12]): -2.1
- KO/WT (MCF7 CARM1 KO cells; [12]): -2.804
- Fold change KO/WT (MCF7 cells; [13]): -2.804

Substance: AGGAASGGGGNSWDLPGSHVrLPGR
- CARM1 140-608/WT (MCF7 CARM1 KO cells; [6]): -0.7799
- KO/WT (MCF7 CARM1 KO cells; [7]): -0.9676
- Fold change KO/WT (MCF7 cells; [8]): -0.8314

Substance: VREELLrHQLLEK
- CARM1 140-608/WT (MCF7 CARM1 KO cells; [14]): -2.55
- KO/WT (MCF7 CARM1 KO cells; [15]): -4.282
- Fold change KO/WT (MCF7 cells; [16]): -4.282

Substance: GVGPPrGALVrGTPVrGAITR
- CARM1 140-608/WT (MCF7 CARM1 KO cells; [9]): 0.2467
- KO/WT (MCF7 CARM1 KO cells; [10]): 0.3361
- Fold change KO/WT (MCF7 cells; [11]): -0.04858
